Data reported in publication PMC11311842, “Radiosynthesis and Preclinical Evaluation of ^18F-Labeled Estradiol Derivatives with Different Lipophilicity for PET Imaging of Breast Cancer” (Cancers, 2024).
Where two headings read alike, the source gives them in different places.

How the values were obtained:
MCF-7 and T47D tumors = conditions: cited from earlier work
[1] = cited from earlier work
[2] = Hydrolysis of the Si-^18F bond observed on formulation; assay type: physicochemical; conditions: slightly acidic conditions (HBSS pH 6.4)
Description: Aiming at a more lipophilic derivatization of EE for comparison to the above-described hydrophilic derivatization, the well-known isotopic ^19F-^18F exchange reaction according to Schirrmacher et al. was applied to the radiosynthesis of ^18F-SiFA-EE, starting from ^19F-SiFA-EE. After cartridge purification and reformulation in HBSS (pH 6.4), ^18F-SiFA-EE was obtained in an AY of 44% (referred to [^18F]fluoride) after a total synthesis time of 27 min, with an Am of up to 28 GBq/µmol. It should be noted here that the obtained Am of ^18F-SiFA-EE was strongly dependent on the starting activity.

ER+ MCF-7 cells = assay: Cellular uptake assay in ER+ cells; assay type: cell-based, human
Description: One day prior to the experiment, MCF-7 and MDA-MB-231 cells were seeded in 24-well plates (350,000 cells/well). The cells were washed once with cell medium. The cells were incubated with the respective radiotracer in cell medium (510 µL) for 10, 20, 30, 60, 90, 120 min at 37 °C in the absence and presence of estradiol (E2, final concentration of 72 µM). After incubation, the plates were set on ice and washed with ice-cold PBS twice, following cell lysis and detachment with NaOH (0.1 M, 750 µL, 37 °C). The cells were transferred to counting tubes, and the radioactivity was measured using a γ-counter (Wallac Wizard, PerkinElmer, Waltham, MA, USA). The protein concentration of each well was determined in duplicate using Bradford reagent (Bio-Rad Laboratories GmbH, Feldkirchen, Germany). The cellular uptake assay was performed in 2–4 independent experiments, each performed in quadruplicate for each time point.

[3] = Determination of logD7.4 (n-octanol/PBS); assay type: physicochemical; conditions: n-octanol/PBS pH 7.4; mean ± SD, three independent experiments
Description: For the determination of the octanol–water coefficient, an aliquot of the radiotracer was added to PBS (500 µL, pH 7.4) and n-octanol (500 µL) in an Eppendorf tube. The mixture was vortexed and subsequently centrifuged, each for 1 min. Three samples (each 100 µL) were taken from both the PBS and the n-octanol layer and measured using a γ-counter (Wallac Wizard, PerkinElmer, Waltham, MA, USA). The logD7.4 was expressed as log(cpmoctanol/cpmPBS) and reported as mean ± SD. The determination of logD7.4 was performed in three independent experiments, each performed in triplicate.

[4] = Plasma protein binding (MicroSpin G-50 columns); assay type: in vitro ADME; conditions: human plasma, 10 min, 37 °C
Description: MicroSPin G-50 columns (Cytiva, Merck KGaA, Darmstadt, Germany) were preconditioned according to the manufacturer’s protocol and the experiment was performed as follows. In brief, an aliquot of the tracer (1 µL, approx. 250 kBq) was added to NaCl (0.9%, 200 µL, negative control) or human plasma (200 µL) and incubated for 10 min at 37 °C. A sample from the plasma or negative control (40 µL) was carefully added to the resin, and the column was placed in an Eppendorf tube. After centrifugation (2 min, 2000× g), the eluate and the resin were collected separately. Both were measured for radioactivity using a γ-counter (Wallac Wizard, PerkinElmer, Waltham, MA, USA), and the radioactivity eluted from the resin was calculated as a percentage of the total amount of radioactivity. The determination of plasma protein binding was performed twice in duplicate.

[5] = Stability in human serum and plasma in vitro (radio-HPLC); assay type: in vitro ADME; conditions: 37 °C; for Stability in human serum and plasma (in words): over 120 min, radio-HPLC; for Stability in Human Serum or Plasma: over 2 h, same for serum and plasma
Description: An aliquot of the formulated tracer solution (40 µL containing approx. 10 MBq in 0.9% NaCl) was incubated with 200 µL of human plasma (Hölzel Diagnostika Handels GmbH, from CosmoBio USA, Carlsbad, CA, USA) or human serum (Biochrom GmbH, Merck KGaA, Darmstadt, Germany), respectively, at 37 °C. After various time points (5–120 min), aliquots (30 µL) were taken and quenched in methanol or 10% TFA (30 µL). The samples were centrifuged for 3 min, and subsequently the supernatants were analyzed by radio-HPLC (Chromolith RP-18e, 100 × 4.6 mm, 10–100% acetonitrile (with 0.1% TFA) in water (with 0.1% TFA) over 5 min, 4 mL/min).

[6] = system: MCF-7 tumor-bearing nude mice; parameters: method as in PMID 29466767; conditions: 60 min p.i., cited from earlier work
[7] = system: MCF-7 (ER+) breast cancer cells; assay: Competitive cellular uptake with ^18F-TA-Glyco-EE as radioligand; assay type: cell-based; conditions: Homo sapiens, MCF7, 1 h, read-out: IC50 for inhibition of cellular uptake of ^18F-TA-Glyco-EE
Description: Competitive uptake experiments were performed using ^18F-TA-Glyco-EE as a radioligand. One day prior to the experiment, MCF-7 cells were seeded in 96-well plates (50,000 cells/well). The cell medium was removed, and the respective estradiol derivative, as a competitor of the radioligand, was added in concentrations from 0 to 500 µM in 90 µL cell culture medium each. After ^18F-TA Glyco-EE (10 µL, approx. 1 MBq/well) was added, the incubation proceeded for 60 min at 37 °C. The plate was set on ice and washed with ice-cold PBS, followed by cell lysis and detachment with NaOH (0.1 M, 200 µL, 37 °C). The cells were transferred into counting tubes, and the radioactivity was measured using a γ-counter (Wallac Wizard, PerkinElmer, Waltham, MA, USA). One single experiment was performed in triplicate.

For `CC12CCC3c4ccc(O)cc4CCC3C1CC([18F])C2O` (stereo not drawn) [FES, 16α-[^18F]fluoroestradiol], the “Uptake in MCF-7 and T47D tumors” value (MCF-7 and T47D tumors) is given as < 0.4 %ID/g and the logD7.4 [1] is given as 2.5.
With `CC12CCC3c4ccc(O)cc4CCC3C1CCC2(O)c1cn(Cc2ccc([Si]([18F])(C(C)(C)C)C(C)(C)C)cc2)nn1` (stereo not shown) [^18F-SiFA-EE] the “Hydrolytic stability of the Si-^18F bond” value [2] was “highly amenable to hydrolysis of the Si-^18F bond”.
In the case of `CC12CCC3c4ccc(O)cc4CCC3C1CCC2(O)c1cn(CCOCCOCCOCC[18F])nn1` (stereo not shown) [^18F-PEG-EE], the “Cellular uptake relative to ^18F-Glyco-EE” value (ER+ MCF-7 cells; ER+ MCF-7 cells) is reported as “four times higher”, the “Cellular uptake in MCF-7 cells” value (ER+ MCF-7 cells; after 60 min, 37 °C, absence of E2) is reported as 27 %/mg and the logD7.4 [3] is reported as 2.2 ± 0.1. The “Plasma Protein Binding” value [4] was 71 ± 4%, the “Stability in human serum and plasma (in words)” value [5] was “stable in both plasma and serum over 120 min” and the “Stability in Human Serum or Plasma” value [5] was >99% over 2 h ^2.
For `C#C[C@]1(O)CC[C@H]2[C@@H]3CCc4cc(O)ccc4[C@H]3CC[C@@]21C` [EE, 17α-ethinylestradiol], the “calculated logKow” value [1] is given as 3.7.
For `CC12CCC3c4ccc(O)cc4CCC3C1CCC2(O)c1cn(C2OC(C[18F])C(O)C(O)C2O)nn1` (stereo not shown) [^18F-Glyco-EE], the “Total cellular uptake in MCF-7 cells” value (ER+ MCF-7 cells; after 90 min, 37 °C, absence of E2) was 7 %/mg, the logD7.4 [3] was 1.7 ± 0.1 and the “Stability in human serum and plasma (in words)” value [5] was “stable in both plasma and serum over 120 min”. The “Stability in Human Serum or Plasma” value [5] was >99% over 2 h ^2.
In the case of `CC12CCC3c4ccc(O)cc4CCC3C1CCC2(O)c1cn(CCOCCOCC[18F])nn1` (stereo not shown) [^18F-FETE], the Tumor uptake ([6]; MCF-7 tumor-bearing nude mice) is given as 4 %ID/g and the “Tumor uptake after fulvestrant pretreatment” value ([6]; MCF-7 xenografts) is given as 1.5 %ID/g.
In the case of `CC(=O)OC1C(CF)OC(n2cc(C3(O)CCC4C5CCc6cc(O)ccc6C5CCC43C)nn2)C(OC(C)=O)C1OC(C)=O` (stereo not shown) [TA-Glyco-EE], the IC50 [7] is reported as 194 µM.
`C[C@]12CC[C@@H]3c4ccc(O)cc4CC[C@H]3[C@@H]1CC[C@@H]2O` [E2, 17β-estradiol, reference compound] gave an IC50 ([7]; MCF-7 cells, 60 min, 37 °C, single experiment in triplicate) of 56 µM.
With `C[C@]12CC[C@@H]3c4ccc(O)cc4CC[C@H]3[C@@H]1CC[C@@]2(O)c1cn(CCOCCOCCOCCF)nn1` [PEG-EE] the IC50 [7] was 1270 µM.
